# Where two headings read alike, the source gives them in different places.
# System: Bursaphelenchus xylophilus
# Format: in vivo
# Details: 24 hours
Compound,"effect of killing nematodes (control area: methyl iodide as is, injected through injection syringe, 96 g/m^3, 10° C.) [%]","effect of killing nematodes (control area: sulfuryl fluoride alone, 50 g/m^3, 15° C.) [%]"
CI [methyl iodide],98,
O=S(=O)(F)F [sulfuryl fluoride],,89
